Experimental data reported in patent US7524956B2, “Hemisynthetic method and new compounds” (Pharma Mar, S.A., priority 1999, dated 2009).

How the values were obtained:
Assay type in all cases: cell-based
[1] = system: MEL-28 (monolayer culture of a human melanoma); assay: Cytotoxic activity screening, MEL-28 cells; conditions: SK-MEL-28, 72 h, three days of incubation, Crystal Violet, approximate IC50
Experimental: (§1) Cell Cultures. Cells were maintained in logarithmic phase of growth in Eagle's Minimum Essential Medium, with Earle's Balanced Salts, with 2.0 mM L-glutamine, with non-essential amino acids, without sodium bicarbonate (EMEM/neaa); supplemented with 10% Fetal Calf Serum (FCS), 10^−2 M sodium bicarbonate and 0.1 g/l penicillin-G+streptomycin sulfate.
(§2) A simple screening procedure has been carried out to determine and compare the antitumour activity of these compounds, using an adapted form of the method described by Bergeron et al (1984). The tumour cell line employed have been P-388 (suspension culture of a lymphoid neoplasm from DBA/2 mouse), A-549 (monolayer culture of a human lung carcinoma), HT-29 (monolayer culture of a human colon carcinoma) and MEL-28 (monolayer culture of a human melanoma).
(§3) A-549, HT-29 and MEL-28 were seeded into 16 mm wells at 2×10^4 cells per well in 1 ml aliquots of MEM 10FCS containing the indicated concentration of drug. A separate set of cultures without drug was seeded as control growth to ensure that cells remained in exponential phase of growth. All determinations were carried out in duplicate. After three days of incubation at 37° C., 10% CO2 in a 98% humid atmosphere, the wells were stained with 0.1% Crystal Violet. An approximately IC50 was determined by comparing the growth in wells with drug to the growth in wells control.

[2] = system: P-388 (suspension culture of a lymphoid neoplasm from DBA/2 mouse); assay: Cytotoxic activity screening, P-388 cells; conditions: P388, 72 h, three days of incubation, approximate IC50
Experimental: as §1, §2
P-388 cell were seeded into 16 mm wells at 1×10^4 cells per well in 1 ml aliquots of MEM 5FCS containing the indicated concentration of drug. A separate set of cultures without drug was seeded as control growth to ensure that cells remained in exponential phase of growth. All determinations were carried out in duplicate.

[3] = system: A-549 (monolayer culture of a human lung carcinoma); assay: Cytotoxic activity screening, A-549 cells; conditions: A549, 72 h, three days of incubation, Crystal Violet, approximate IC50
Experimental: as §1, §2, §3

[4] = system: HT-29 (monolayer culture of a human colon carcinoma); assay: Cytotoxic activity screening, HT-29 cells; conditions: HT-29, 72 h, three days of incubation, Crystal Violet, approximate IC50
Experimental: as §1, §2, §3

DU-145 = assay: Cytotoxic activity screening, DU-145 cells; conditions: Homo sapiens, DU-145, DU-145 cells

| Structure (SMILES) | IC50 [1] [µM] | IC50 [2] [µM] | IC50 [3] [µM] | IC50 [4] [µM] | IC50 (DU-145) [µM] |
| --- | --- | --- | --- | --- | --- |
| CCCCCCCCCC(=O)NC[C@H]1c2c(c(OC(C)=O)c(C)c3c2OCO3)CC2[C@H]3c4c(cc(C)c(OC)c4O)C[C@@H]([C@H](C#N)N21)N3C (stereo partly drawn) | 0.007 | 0.007 | 0.007 | 0.007 | 0.007 |
| CCCC(=O)N[C@@H](C)C(=O)NC[C@H]1c2c(c(OC(C)=O)c(C)c3c2OCO3)CC2[C@H]3c4c(cc(C)c(OC)c4O)C[C@@H]([C@H](C#N)N21)N3C (stereo partly drawn) | 0.0005 | 0.001 | 0.001 | 0.0005 | 0.001 |
| COc1c(C)cc2c(c1O)[C@@H]1C3Cc4c(OC(C)=O)c(C)c5c(c4[C@H](CNC(=O)/C=C/c4ccccc4)N3[C@@H](C#N)[C@H](C2)N1C)OCO5 (stereo partly drawn) | 0.0001 | 0.0001 | 0.0001 | 0.0001 | 0.0001 |
